Test results from ChEMBL document CHEMBL1125670, “Synthesis and evaluation of novel ether lipid nucleoside conjugates for anti-HIV-1 activity” (J Med Chem, 1991).
Blank lines part the entries; values can stand above or below the compound they belong to.

Assays:
[1] = system: Human immunodeficiency virus 1; experiment: Anti-HIV-1 activity against syncytial plaque formation; assay type: functional, organism-based
[2] = system: CEM-SS; experiment: Concentration of compound required to 50% growth inhibition of CEM-SS cells
[3] = system: Human immunodeficiency virus 1; experiment: Anti-HIV-1 activity against syncytial plaque formation at a conc. of 0.03 uM; assay type: functional
[4] = system: Human immunodeficiency virus 1; experiment: Anti-HIV-1 activity against syncytial plaque formation at a conc. of 0.06 uM; assay type: functional
[5] = system: Human immunodeficiency virus 1; experiment: Anti-HIV-1 activity against syncytial plaque formation at a conc. of 0.12 uM; assay type: functional
[6] = system: Human immunodeficiency virus 1; experiment: Anti-HIV-1 activity against syncytial plaque formation at a conc. of 0.25 uM; assay type: functional
[7] = system: Human immunodeficiency virus 1; experiment: Anti-HIV-1 activity against syncytial plaque formation at a conc. of 0.5 uM; assay type: functional
[8] = system: Human immunodeficiency virus 1; experiment: Anti-HIV-1 activity against syncytial plaque formation at a conc. of 1 uM; assay type: functional
[9] = system: U1; experiment: (§1) inhibition of HIV-1 induced RT production in U1 cells; assay type: functional, Homo sapiens; set-up: scale not given: the % may be the effect or the level left
[10] = system: U1; experiment: (§2) inhibition of infectious virus production in U1 cells; assay type: functional, Homo sapiens; set-up: scale not given: the % may be the effect or the level left
[11] = system: U1; experiment: (§3) inhibition of p24 core antigen synthesis in U1 cells; assay type: functional, Homo sapiens; set-up: scale not given: the % may be the effect or the level left
[12] = system: Human immunodeficiency virus 1; experiment: Anti-HIV-1 activity against syncytial plaque formation at a conc. of 0.0003 uM; assay type: functional
[13] = system: Human immunodeficiency virus 1; experiment: Anti-HIV-1 activity against syncytial plaque formation at a conc. of 0.0007 uM; assay type: functional
[14] = system: Human immunodeficiency virus 1; experiment: Anti-HIV-1 activity against syncytial plaque formation at a conc. of 0.0015 uM; assay type: functional
[15] = system: Human immunodeficiency virus 1; experiment: Anti-HIV-1 activity against syncytial plaque formation at a conc. of 0.003 uM; assay type: functional
[16] = system: Human immunodeficiency virus 1; experiment: Anti-HIV-1 activity against syncytial plaque formation at a conc. of 0.006 uM; assay type: functional
[17] = system: Human immunodeficiency virus 1; experiment: Anti-HIV-1 activity against syncytial plaque formation at a conc. of 0.012 uM; assay type: functional
[18] = system: U1; experiment: as §1; assay type: functional, Homo sapiens
[19] = system: U1; experiment: as §2; assay type: functional, Homo sapiens
[20] = system: U1; experiment: as §3; assay type: functional, Homo sapiens

- IC50 [1]: > 100 µM
Compound: CCCCCCCCCCCCCCCCCC(=O)NCC(COP(=O)(O)O)OCC (stereo not given)
- IC50 [2]: > 100 µM

- IC50 [1]: 0.11 µM
Compound: CCCCCCCCCCCCCCCCCC(=O)[N-]CC(COP(=O)([O-])OCC[N+](C)(C)C)OCC.[Na+] (stereo not given)
- inhibition at 0.03 µM [3]: 14%
- inhibition at 0.06 µM [4]: 34%
- inhibition at 0.12 µM [5]: 49%
- inhibition at 0.25 µM [6]: 60%
- inhibition at 0.5 µM [7]: 74%
- inhibition at 1 µM [8]: 89%
- Control [9]: 147%
- Control [10]: 33%
- Control [11]: 74%
- IC50 [2]: 14.3 µM

- IC50 [1]: 0.6 µM
Compound: CCCCCCCCCCCCCCCCSCC(COP(=O)([O-])OCC[N+](C)(C)C)OCC (stereo not given)
- IC50 [2]: 4.1 µM

- IC50 [1]: > 100 µM
Compound: CCCCCCCCCCCCCCCCCC(=O)NCC(CO)OCC (stereo not given)
- IC50 [2]: > 100 µM

- IC50 [1]: 0.03 µM
Compound: CCCCCCCCCCCCCCCCCC(=O)NCC(COP(=O)([O-])OC[C@H]1O[C@@H](n2cc(C)c(=O)[nH]c2=O)C[C@@H]1N=[N+]=[N-])OCC.[Na+] (stereo not given in full)
- Control [9]: 121%
- Control [10]: 67%
- Control [11]: 84%
- IC50 [2]: 53.8 µM

- IC50 [1]: 0.03 µM
Compound: CCCCCCCCCCCCCCCCOCC(COP(=O)(O)OC[C@H]1O[C@@H](n2cc(C)c(=O)[nH]c2=O)C[C@@H]1N=[N+]=[N-])OCC (stereo not given in full)
- IC50 [2]: 35 µM

- IC50 [1]: 1.56 µM
Compound: CCCCCCCCCCCCCCCCCC(=O)NCC(COP(=O)(O)OC[C@@H]1CC[C@H](n2cnc3c(=O)[nH]cnc32)O1)OCC (stereo not given in full)
- IC50 [2]: > 100 µM

- IC50 [1]: 1.7 µM
Compound: O=c1[nH]cnc2c1ncn2[C@H]1CC[C@@H](CO)O1 [DIDANOSINE]
- IC50 [2]: > 100 µM

- IC50 [1]: 1.4 µM
Compound: CCCCCCCCCCCCCCCCCCOCC(COP(=O)([O-])OCC[N+](C)(C)C)OC (stereo not given) [EDELFOSINE]
- IC50 [2]: 4 µM

Compound: Cc1cn([C@H]2C[C@H](N=[N+]=[N-])[C@@H](CO)O2)c(=O)[nH]c1=O [ZIDOVUDINE]
- inhibition at 0.0003 µM [12]: 18%
- inhibition at 0.0007 µM [13]: 53%
- inhibition at 0.0015 µM [14]: 70%
- inhibition at 0.003 µM [15]: 79%
- inhibition at 0.006 µM [16]: 87%
- inhibition at 0.012 µM [17]: 93%
- Of control [18]: 90%
- Of control [19]: 87%
- Of control [20]: 101%
- IC50 [2]: 5.1 µM
